Laboratory results: PubChem BioAssay (NCI)
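Step 1: Grow cells in 96-well plates. Step 2: Expose to compound for 48 hours at 5 concentrations. Step 3: Interpolate endpoints linearly; if unreached, use highest concentration. TGI: total growth inhibition.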

Key:
Experiment in all cases: NCI-60 cell line screen, 48 h
A498 renal = test system: A498 renal
ACHN renal = test system: ACHN renal
DU-145 prostate = test system: DU-145 prostate
HCT-116 colon = test system: HCT-116 colon
HL-60(TB) leukemia = test system: HL-60(TB) leukemia
HOP-62 NSCLC = test system: HOP-62 NSCLC
HS 578T breast = test system: HS 578T breast
IGROV1 ovarian = test system: IGROV1 ovarian
KM12 colon = test system: KM12 colon
MDA-MB-435 = test system: MDA-MB-435
OVCAR-3 ovarian = test system: OVCAR-3 ovarian
OVCAR-8 ovarian = test system: OVCAR-8 ovarian
SF-295 CNS = test system: SF-295 CNS
SK-MEL-28 melanoma = test system: SK-MEL-28 melanoma
SNB-75 CNS = test system: SNB-75 CNS
SR leukemia = test system: SR leukemia
UO-31 renal = test system: UO-31 renal

SMILES	TGI (A498 renal)	TGI (ACHN renal)	TGI (DU-145 prostate)	TGI (HCT-116 colon)	TGI (HL-60(TB) leukemia)	TGI (HOP-62 NSCLC)	TGI (HS 578T breast)	TGI (IGROV1 ovarian)	TGI (KM12 colon)	TGI (MDA-MB-435)	TGI (OVCAR-3 ovarian)	TGI (OVCAR-8 ovarian)	TGI (SF-295 CNS)	TGI (SK-MEL-28 melanoma)	TGI (SNB-75 CNS)	TGI (SR leukemia)	TGI (UO-31 renal)
CCOC(=O)Cn1c(=O)c2nc(SC)sc2n(-c2ccc(C)cc2)c1=S	> 100 µM	> 100 µM	> 100 µM	> 100 µM	> 100 µM	42.5 µM	> 66.5 µM	> 100 µM	> 100 µM	> 100 µM	> 100 µM	> 100 µM	> 100 µM	> 100 µM	44.2 µM	> 100 µM	> 100 µM
CCc1cc(-c2nsc(=O)o2)c(S(=O)(=O)CC)s1	> 100 µM	> 100 µM	> 100 µM	> 100 µM	12 µM	> 100 µM	> 100 µM	> 100 µM	> 100 µM	> 100 µM	> 100 µM	> 100 µM	> 100 µM	> 100 µM	> 100 µM	> 100 µM	> 100 µM
[N-]=[N+]=NC1(N=[N+]=[N-])C(=O)NN=C(c2ccccc2)C1=O (stereo unspecified)	> 100 µM	> 100 µM	> 100 µM	38.7 µM	> 100 µM	> 100 µM	> 100 µM	> 100 µM	> 100 µM	42.6 µM	> 100 µM	> 100 µM	> 100 µM	31.9 µM	> 100 µM	75.5 µM	> 100 µM
CCOC(=O)Cc1ccc(Nc2nc3cc(C(F)(F)F)ccc3nc2C(=O)OCC)cc1	> 100 µM	> 100 µM	> 100 µM	> 100 µM	> 100 µM	> 100 µM	85.1 µM	> 100 µM	> 100 µM	> 100 µM	> 100 µM	> 100 µM	> 100 µM	> 100 µM	48.2 µM	> 100 µM	> 100 µM
NCC(=O)C(O)C(O)C(O)CO (stereo unspecified)	> 100 µM	> 100 µM	> 100 µM	> 100 µM	> 100 µM	> 100 µM	> 100 µM	> 100 µM	> 100 µM	> 100 µM	> 100 µM	> 100 µM	> 100 µM	> 100 µM	> 100 µM	> 100 µM	> 100 µM
CC(=O)C1(c2ccccc2)CCN(Cn2sc3nc(C)cc(C)c3c2=O)CC1	> 100 µM	33.5 µM	> 100 µM	52 µM	52.5 µM	> 100 µM	> 100 µM	> 100 µM	> 100 µM	59.8 µM	> 100 µM	74.6 µM	> 100 µM	93.1 µM	57.3 µM	> 100 µM	31.8 µM
c1ccc(COCC23CCN(Cc4ccccc4)C(CC(OCc4ccccc4)C2)S3)cc1 (stereo unspecified)	> 100 µM	> 100 µM	> 100 µM	> 100 µM	45.4 µM	> 100 µM	> 100 µM	> 100 µM	> 100 µM	> 100 µM	> 100 µM	> 100 µM	> 100 µM	> 100 µM	> 100 µM	63.7 µM	> 100 µM
C1COC2SC3=C(SC(=C4SC5=C(SCCS5)S4)S3)SC2O1 (stereo unspecified)	> 100 µM	> 100 µM	> 100 µM	> 100 µM	> 100 µM	> 100 µM	> 100 µM	> 100 µM	> 100 µM	> 100 µM	> 100 µM	> 100 µM	> 100 µM	> 100 µM	> 100 µM	78.3 µM	> 100 µM
Cc1cc(C)c2c(=O)cc(-c3ccc(Cl)cc3)[nH]c2n1	> 100 µM	> 100 µM	> 100 µM	> 63.4 µM	> 83 µM	> 100 µM	> 100 µM	> 100 µM	> 100 µM	27.6 µM	> 100 µM	> 100 µM	> 73.3 µM	> 75.2 µM	> 65 µM	> 100 µM	> 93.9 µM
COC(=O)C1([C@@H]2C[C@@H](O)[C@]3(C)CC/C=C(\C)CCC[C@H](C)[C@H](O)[C@@H]2O3)CC1	> 100 µM	> 100 µM	> 100 µM	> 100 µM	> 100 µM	> 100 µM	> 100 µM	> 100 µM	> 100 µM	> 100 µM	> 100 µM	> 100 µM	> 100 µM	> 100 µM	17.8 µM	95.3 µM	60.3 µM
CC1(C)C(O)c2ccccc2OC1N1CCN(C2Oc3ccccc3C(O)C2(C)C)CC1 (stereo unspecified)	> 100 µM	> 100 µM	> 100 µM	> 100 µM	> 100 µM	> 100 µM	> 100 µM	> 100 µM	> 100 µM	> 100 µM	> 100 µM	> 100 µM	> 100 µM	> 100 µM	> 100 µM	> 100 µM	> 100 µM
COc1cccc2c1C(=O)C(=O)c1c-2oc(=O)c2cc(C)cc(OC)c12	> 75 µM	> 75 µM	27.9 µM	> 75 µM	49.9 µM	32.4 µM	55.1 µM	32 µM	53.9 µM	26.1 µM	27.2 µM	30.6 µM	> 75 µM	> 75 µM	55.7 µM	> 75 µM	> 75 µM
O=S(=O)(O)c1cc(S(=O)(=O)O)c2c(N=Nc3cccc4ccccc34)c(O)ccc2c1	> 100 µM	> 100 µM	> 100 µM	> 100 µM	> 100 µM	> 100 µM	> 100 µM	> 100 µM	> 100 µM	> 100 µM	> 100 µM	> 100 µM	> 100 µM	> 100 µM	> 100 µM	> 100 µM	> 100 µM
O=C(NNC(=S)Nc1ccccc1)C12CC3CC(CC(C3)C1)C2	> 91.4 µM	> 100 µM	> 100 µM	> 94.3 µM	37.7 µM	> 100 µM	> 100 µM	> 100 µM	> 100 µM	> 100 µM	> 67.7 µM	> 100 µM	> 100 µM	> 100 µM	> 92.9 µM	22.5 µM	> 100 µM
CCCCCCCC/C=C\CCCCCCCCNc1ccn(C2OC(COP(=O)(O)OC3CC(n4cc(F)c(=O)[nH]c4=O)OC3CO)C(O)C2O)c(=O)n1 (stereo unspecified)	> 53.2 µM	> 100 µM	> 100 µM	> 100 µM	45.7 µM	> 100 µM	> 100 µM	> 100 µM	> 100 µM	> 100 µM	> 100 µM	> 100 µM	> 100 µM	> 100 µM	> 100 µM	37.7 µM	> 100 µM
Cc1ccc2c(c1)C(=O)/C(=C1/CCc3ccc(C)cc31)C2	> 100 µM	> 100 µM	> 100 µM	> 100 µM	> 100 µM	> 100 µM	> 100 µM	> 100 µM	> 100 µM	> 100 µM	> 100 µM	> 100 µM	> 100 µM	> 100 µM	71.1 µM	> 100 µM	> 100 µM
O=C1c2ccccc2C(=O)c2c(OCC3CO3)ccc(OCC3CO3)c21 (stereo unspecified)	> 47.5 µM	6.63 µM	13.3 µM	11.5 µM	2.18 µM	7.09 µM	36.8 µM	10.8 µM	11.4 µM	7.61 µM	10.7 µM	5.94 µM	11.8 µM	12 µM	29.9 µM	1.55 µM	10.4 µM
O=C(NO)c1cccc(OCc2ccc(Br)cc2)c1	32.2 µM	12.8 µM	13.7 µM	15.2 µM	21.9 µM	52.8 µM	75.4 µM	35 µM	> 64.9 µM	38.7 µM	> 48.1 µM	17.4 µM	> 62.1 µM	> 100 µM	> 54.1 µM	37.3 µM	14.4 µM
CC(C)=CCNc1ncnc2c1ncn2CCC(=O)OC(C)(C)C	> 100 µM	> 100 µM	> 100 µM	> 100 µM	> 100 µM	> 100 µM	> 100 µM	> 100 µM	> 100 µM	> 100 µM	> 100 µM	> 100 µM	> 100 µM	> 100 µM	> 100 µM	> 100 µM	> 100 µM
N#Cc1c(C#N)c(-c2cccc([N+](=O)[O-])c2)n(-c2ccccc2)c1N	> 100 µM	> 100 µM	> 100 µM	> 100 µM	> 100 µM	> 100 µM	> 100 µM	> 100 µM	> 100 µM	> 100 µM	> 100 µM	> 100 µM	> 100 µM	–	61 µM	> 100 µM	> 100 µM
CN(C)c1ccc(N=Nc2cccc3ccoc23)cc1	> 100 µM	> 100 µM	> 100 µM	> 100 µM	> 74.7 µM	> 100 µM	> 100 µM	> 100 µM	> 100 µM	> 100 µM	> 100 µM	> 100 µM	> 100 µM	> 100 µM	> 100 µM	> 76.1 µM	> 74.3 µM
